In patent publication US10435399B2, “HDAC6 inhibitory heterocyclic compound” (TAKEDA PHARMACEUTICAL COMPANY LIMITED, priority 2017, dated 2019):

target: T1, HDAC6 enzyme (Homo sapiens, UniProt Q9UBN7); experiment: HDAC6 enzyme inhibitory activity (HDAC-Glo I/II Assay kit); format: biochemical; settings: 10 μM; wells without enzyme = 100% inhibition
T1 construct: transducing full length HDAC6 gene into Sf-9 insect cells; GST; purchased SignalChem; host or cells: Sf-9 insect cells
T1 sequence (Q9UBN7 1-1215): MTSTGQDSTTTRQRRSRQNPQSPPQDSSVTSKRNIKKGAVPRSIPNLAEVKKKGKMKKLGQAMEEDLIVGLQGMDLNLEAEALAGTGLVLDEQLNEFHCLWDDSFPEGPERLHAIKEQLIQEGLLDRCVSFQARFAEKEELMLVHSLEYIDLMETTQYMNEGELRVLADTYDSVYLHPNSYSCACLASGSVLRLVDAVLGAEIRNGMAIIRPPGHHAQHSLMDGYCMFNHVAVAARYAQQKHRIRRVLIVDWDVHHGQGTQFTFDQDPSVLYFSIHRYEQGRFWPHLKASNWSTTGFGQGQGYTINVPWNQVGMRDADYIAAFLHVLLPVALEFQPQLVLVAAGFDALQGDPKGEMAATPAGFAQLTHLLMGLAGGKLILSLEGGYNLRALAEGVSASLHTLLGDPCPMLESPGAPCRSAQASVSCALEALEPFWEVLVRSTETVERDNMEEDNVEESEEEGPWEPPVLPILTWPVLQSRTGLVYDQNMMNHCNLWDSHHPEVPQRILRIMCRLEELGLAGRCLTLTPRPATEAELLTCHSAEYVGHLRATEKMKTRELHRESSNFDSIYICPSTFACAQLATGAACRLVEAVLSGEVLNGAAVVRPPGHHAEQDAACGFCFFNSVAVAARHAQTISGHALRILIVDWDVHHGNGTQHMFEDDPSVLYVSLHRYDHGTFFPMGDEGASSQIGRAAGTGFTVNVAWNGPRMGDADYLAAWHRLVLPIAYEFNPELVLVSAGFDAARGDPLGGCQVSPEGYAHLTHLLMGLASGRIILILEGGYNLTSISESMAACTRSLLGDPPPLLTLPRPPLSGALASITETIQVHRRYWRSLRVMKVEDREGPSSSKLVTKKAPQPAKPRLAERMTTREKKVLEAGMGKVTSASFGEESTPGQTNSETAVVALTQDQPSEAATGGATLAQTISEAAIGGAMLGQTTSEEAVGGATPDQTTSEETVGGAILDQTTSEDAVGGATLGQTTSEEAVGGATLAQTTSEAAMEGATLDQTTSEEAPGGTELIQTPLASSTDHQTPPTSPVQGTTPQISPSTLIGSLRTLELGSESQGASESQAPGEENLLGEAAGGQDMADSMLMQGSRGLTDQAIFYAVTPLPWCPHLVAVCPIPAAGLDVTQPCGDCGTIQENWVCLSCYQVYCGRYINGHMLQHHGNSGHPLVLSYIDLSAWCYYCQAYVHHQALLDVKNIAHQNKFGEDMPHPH
Protocol: HDAC6 enzyme prepared by transducing full length HDAC6 gene into Sf-9 insect cells and purifying by GST affinity column were purchased from SignalChem. Using this enzyme, HDAC6 enzyme inhibitory activities of the compound of the present invention were evaluated. Enzymes were used after preserved at −70° C. HDAC6 enzyme inhibitory activity of the compound of the present invention was measured using HDAC-Glo™ I/II Assay kit (Promega) according to the following experimental method. The test compound diluted with assay buffer (24 mM Tris-HCl (pH 7.5), 1 mM MgCl2, 0.35 mM KCl, 135 mM NaCl, 0.6 mM Glutathione, 0.01% Tween-20) was added to a 384-well plate by each 2 μL. Then, HDAC6 enzyme solution diluted with assay buffer was added thereto by each 4 μL, and the plate was incubated at room temperature for 60 min. After incubated, HDAC substrate-Developer solution prepared according to Promega protocol attached to the assay kit was added to the 384-well plate by each 2 μL, and the enzyme reaction was started. After reacting at room temperature for 20 min, luminescence level was measured using plate reader Envision (PerkinElmer). The inhibitory activity of each compound of Example was calculated as a relative activity value when luminescence level in wells without enzyme is considered as 100% inhibition.

Row | HDAC6 inhibitory rate (%) (10 μM) | SMILES
1 | 100 | O=C1c2cc(-c3nnc(C(F)F)o3)ccc2CN1[C@@H]1CCCC[C@H]1n1cccn1 (relative stereo) [Example 529, 6-(5-(difluoromethyl)-1,3,4-oxadiazol-2-yl)-2-((1R*,2R*)-2-(1H-pyrazol-1-yl)cyclohexyl)isoindolin-1-one (optical isomer)]
2 | 100 | O=C1c2cc(-c3nnc(C(F)F)o3)ccc2CN1[C@H]1CCCC[C@H]1n1cccn1 (relative stereo) [Example 543, 6-(5-(difluoromethyl)-1,3,4-oxadiazol-2-yl)-2-((1S*,2R*)-2-(1H-pyrazol-1-yl)cyclohexyl)isoindolin-1-one (optical isomer)]

same assay, conditions: 10 μM; wells without enzyme = 100% inhibition; read-out: HDAC6 inhibitory rate (%) (10 μM)

Row | SMILES | inhibition at 10 µM [%]
3 | O=C(C(F)F)N1CCC[C@H](N2Cc3ccc(-c4nnc(C(F)F)o4)cc3C2=O)[C@H]1c1ccc(F)cc1 (racemic) [Example 584, 2-((2RS,3SR)-1-(difluoroacetyl)-2-(4-fluorophenyl)piperidin-3-yl)-6-(5-(difluoromethyl)-1,3,4-oxadiazol-2-yl)isoindolin-1-one] | 100
4 | CC(C)(C)OC(=O)N1CCC[C@@H](N2Cc3ccc(-c4nnc(C(F)F)o4)cc3C2=O)[C@H]1c1ccc(F)cc1 (racemic) [Example 618, tert-butyl (2RS,3RS)-3-(6-(5-(difluoromethyl)-1,3,4-oxadiazol-2-yl)-1-oxo-1,3-dihydro-2H-isoindol-2-yl)-2-(4-fluorophenyl)piperidine-1-carboxylate] | 99
5 | O=C1c2cc(-c3nnc(C(F)F)o3)ccc2CN1[C@@H]1CCCC[C@H]1n1cccn1 (relative stereo) [Example 528, 6-(5-(difluoromethyl)-1,3,4-oxadiazol-2-yl)-2-((1R*,2R*)-2-(1H-pyrazol-1-yl)cyclohexyl)isoindolin-1-one (optical isomer)] | 99
6 | O=C1c2cc(-c3nnc(C(F)F)o3)cnc2CN1[C@@H]1CCCC[C@H]1n1cccn1 (relative stereo) [Example 539, 3-(5-(difluoromethyl)-1,3,4-oxadiazol-2-yl)-6-((1R*,2R*)-2-(1H-pyrazol-1-yl)cyclohexyl)-6,7-dihydro-5H-pyrrolo[3,4-b]pyridin-5-one (optical isomer)] | 99
7 | O=C1c2cc(-c3nnc(C(F)F)o3)ccc2CN1[C@H]1CCCC[C@H]1n1cccn1 (relative stereo) [Example 542, 6-(5-(difluoromethyl)-1,3,4-oxadiazol-2-yl)-2-((1S*,2R*)-2-(1H-pyrazol-1-yl)cyclohexyl)isoindolin-1-one (optical isomer)] | 90

Second part, the compound after the results:

Row | inhibition at 10 µM [%] | SMILES
8 | 100 | O=C1c2cc(-c3nnc(C(F)F)o3)cnc2CN1[C@@H]1CCCC[C@H]1Oc1cncc(F)c1 (racemic) [Example 585, 3-(5-(difluoromethyl)-1,3,4-oxadiazol-2-yl)-6-((1RS,2RS)-2-((5-fluoropyridin-3-yl)oxy)cyclohexyl)-6,7-dihydro-5H-pyrrolo[3,4-b]pyridin-5-one]
9 | 101 | O=C1c2cc(-c3nnc(C(F)F)o3)ccc2CN1[C@@H]1CCCN[C@@H]1c1ccc(F)cc1 (racemic) [Example 620, 6-(5-(difluoromethyl)-1,3,4-oxadiazol-2-yl)-2-((2RS, 3RS)-2-(4-fluorophenyl)piperidin-3-yl)isoindolin-1-one]
10 | 100 | O=C1c2cc(-c3nnc(C(F)F)o3)ccc2CN1[C@@H]1CCCN(C(=O)C(F)F)[C@@H]1c1ccc(F)cc1 (racemic) [Example 624, 2-((2RS,3RS)-1-(difluoroacetyl)-2-(4-fluorophenyl)piperidin-3-yl)-6-(5-(difluoromethyl)-1,3,4-oxadiazol-2-yl)isoindolin-1-one]
11 | 100 | O=C1c2cc(-c3nnc(C(F)F)o3)cnc2CN1[C@@H]1CCCC[C@H]1c1ccn[nH]1 (racemic) [Example 654, 3-[5-(difluoromethyl)-1,3,4-oxadiazol-2-yl]-6-[(1RS,2RS)-2-(1H-pyrazol-5-yl)cyclohexyl]-6,7-dihydro-5H-pyrrolo[3,4-b]pyridin-5-one]
